Positions count from the first letter of the chain named. Like-named read-outs stand apart in the source and are kept apart here.

One assay addresses T1, RET M918T (Homo sapiens, UniProt P07949, M918T).
T1 construct: Recombinant proteins containing RET wt, RET (M918T) and RET (V804L) domains were purchased from Promega; purchased Promega VA7274
T1 sequence (P07949 724-1016 M918T limits assumed): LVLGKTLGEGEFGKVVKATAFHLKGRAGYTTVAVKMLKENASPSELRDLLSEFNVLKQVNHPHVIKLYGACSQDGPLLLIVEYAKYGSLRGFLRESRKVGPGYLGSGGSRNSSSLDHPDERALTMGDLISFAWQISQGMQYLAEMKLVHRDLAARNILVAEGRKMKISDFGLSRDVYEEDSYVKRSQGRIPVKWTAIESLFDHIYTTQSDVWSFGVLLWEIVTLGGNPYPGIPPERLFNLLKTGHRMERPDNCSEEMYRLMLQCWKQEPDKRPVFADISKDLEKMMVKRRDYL
Briefly: ADP-Glo kinase assay, RET M918T. It counts as biochemical. To be noted: recombinant RET (M918T), 120 min room temperature, read-out: Enzyme activity (IC50, nM) RET M918T. The procedure: (§1) Analysis performed in two steps. First, after kinase reaction, ADP-Glo™ reagent of equal volume was added to finish kinase reaction, and then the rest ATP was exhausted. Second, Kinase Detection Reagent was added to convert ADP to ATP and newly synthesized ATP was measured by luciferase/luciferin reaction at the same time. Generated light was measured by using luminometer. The measured luminescence amount can be applied to the ATP→ADP standard conversion curve to confirm the correlation with the ADP concentration.
(§2) Recombinant proteins containing RET wt, RET (M918T) and RET (V804L) domains were purchased from Promega (cat #V8061, cat #VA7274, cat #V4473), respectively. According to the manufacturer's instructions, optimal enzyme, ATP, and substrate concentration were established using ADP-Glo™ Kinase Assay (Promega, USA). […] Then, ADP-Glo™ Reagent (5 μl) was added and reacted at room temperature for further 40 min. Lastly, Kinase Detection Reagent (10 μl) was added and reacted for 30 min more at room temperature, and then phosphorylation of substrate peptide was measured by measuring luciferase signal (Integration time 0.5-1 second) using SpectraMax ID5 reader (Molecular Devices LLC., San Jose, CA, USA). IC50 was calculated by nonlinear regression using Prism version 5.01 (GrapghPad).
A general note: ADP-Glo first removes unused ATP, then detects ADP through luciferase.

The target of a further assay is T2, RET WT (Homo sapiens, UniProt P07949).
T2 construct: Recombinant proteins containing RET wt, RET (M918T) and RET (V804L) domains were purchased from Promega; purchased Promega V8061
T2 sequence (P07949 724-1016 limits assumed): T1 sequence (P07949 724-1016 M918T limits assumed) with T195M
Briefly: ADP-Glo kinase assay, RET WT. It counts as biochemical. To be noted: recombinant RET wt, 120 min room temperature, read-out: Enzyme activity (IC50, nM) RET WT. The procedure: as §1, §2

The target in another assay is T3, RET V804L (Homo sapiens, UniProt P07949, V804L).
T3 construct: Recombinant proteins containing RET wt, RET (M918T) and RET (V804L) domains were purchased from Promega; purchased Promega V4473
T3 sequence (P07949 724-1016 V804L limits assumed): T1 sequence (P07949 724-1016 M918T limits assumed) with V81L, T195M
Briefly: ADP-Glo kinase assay, RET V804L. In kind it is biochemical. To be noted: recombinant RET (V804L), 120 min room temperature, read-out: Enzyme activity (IC50, nM) RET V804L. As to the method: as §1, §2

A further assay deals with MV4-11. The experiment in a line: Cell proliferation inhibition in AML cell line MV4-11 (Alamar Blue). It counts as cell-based. The settings on record: Homo sapiens, MV4-11, 72 hours, read-out: Cell proliferation inhibitory activity (GI50) MV4-11. From the text: Cell proliferation inhibition experiments on acute myeloid leukemia (AML) cell lines tested FLT3 inhibitory activity using MV4-11, Molm-13, and Molm-14 cells, which are FLT3-ITD-expressed AML cell lines. The origin of all cell lines is human-derived cell lines, and the place of purchase and culture conditions of each cell line are as follows.
MV4-11 cells were purchased form the American Type Culture Collection (ATCC, Rockville, MD, USA, cat #CRL-9591), Molm-13 (DSMZ, cat #ACC554), Molm-14 (DSMZ, cat #ACC777), and then cultured in RPMI 1640 medium (Corning Co. 10-040-CV) supplemented with 10% fetal bovine serum, 1% penicillin/streptomycin and 4 mM L-glutamine (Life Technology, GrandIsland, NY).
Cell viability was evaluated by Resazurin redox-based analysis method with Alamar Blue Assay Kit (Invitrogen, USA). Specifically, for MV4-11, Molm-13 and Molm-14 cells, 8000 cells were plated on 384-well plates in 45 μl of medium. Compounds were treated with dimethyl sulfoxide (DMSO) as a negative control group. After 3 days (72 hours) of compound addition, 5 μl of Alamar Blue kit reagent was added to each well of 384-well plate and incubated at 37° C. for 2 hours in a humidified CO2 incubator. After incubation, fluorescence density (Flu) was measured at a wavelength of 544 nm and 590 nm using SpectraMax iD3 Multi Mode Microplate Reader (Molecular Devices, ID3-STD). GI50 was calculated by nonlinear regression using Prism version 5.01 (GraphPad, LaJolla, CA, USA).

Broadly, the IC50 is the concentration that gives 50% inhibition. As to `O=C1Nc2ccccc2/C1=C1/Nc2ccccc2/C1=N\OCCN1CC2(CNC2)C1` [Example 1, (2Z,3E)-3-((2-(2,6-diazaspiro[3.3]heptan-2-yl)ethoxy)imino)-[2,3′-biindolinylidene]-2′-one], the IC50 at RET M918T worked out at 0.449 nM; at RET WT, 1.09 nM; on RET V804L it was 1.3 nM. In addition, the GI50 in the assay on MV4-11 stood at 12400 pM.

`O=C1Nc2ccccc2/C1=C1/Nc2ccccc2/C1=N\OCCN[C@H]1[C@@H]2CNC[C@@H]21` [Example 2, (2Z,3E)-3-((2-((1R,5S,6s)-3-azabicyclo[3.1.0]hexan-6-ylamino)ethoxy)imino)-[2,3′-biindolinylidene]-2′-one]: the values for the IC50 on RET M918T, at RET WT and on RET V804L were 1.25 nM, 0.964 nM and 0.553 nM, respectively. In addition, the GI50 in the assay on MV4-11 was determined as 7900 pM.

In the case of `N[C@@H]1[C@H]2CN(CCO/N=C3/C(=C4/C(=O)Nc5ccccc54)Nc4ccccc43)C[C@@H]12` [Example 3, (2Z,3E)-3-((2-((1R,5S,6s)-6-amino-3-azabicyclo[3.1.0]hexan-3-yl)ethoxy)imino)-[2,3′-biindolinylidene]-2′-one], the IC50 at RET M918T is 1.02 nM; at RET WT it was 0.969 nM; at RET V804L, 1.27 nM. In addition, in the assay with MV4-11, the GI50 came out at 90600 pM.

For `O=C1Nc2ccccc2/C1=C1/Nc2ccccc2/C1=N\OCCN1C[C@H]2C[C@@H]1CN2` [Example 4, (2Z,3E)-3-((2-((1R,4R)-2,5-diazabicyclo[2.2.1]heptan-2-yl)ethoxy)imino)-[2,3′-biindolinylidene]-2′-one], the IC50 was determined as 0.348 nM on RET M918T, 0.423 nM on RET WT and 0.212 nM on RET V804L.

As for `O=C1Nc2ccccc2/C1=C1/Nc2ccccc2/C1=N\OCCN1C[C@@H]2C[C@H]1CN2` [Example 5, (2Z,3E)-3-((2-((1S,4S)-2,5-diazabicyclo[2.2.1]heptan-2-yl)ethoxy)imino)-[2,3′-biindolinylidene]-2′-one], the half-inhibitory concentration (IC50) on RET M918T worked out at 0.771 nM; on RET WT, 1.85 nM; on RET V804L, 0.851 nM. Moreover, the GI50 with MV4-11 amounted to 663 pM.

As for `O=C1Nc2ccc(F)cc2/C1=C1/Nc2ccccc2/C1=N\OCCN1CC2(CNC2)C1` [Example 6, (2Z,3E)-3-((2-(2,6-diazaspiro[3.3]heptan-2-yl)ethoxy)imino)-5′-fluoro-[2,3′-biindolinylidene]-2′-one], the IC50 was found to be 0.67 nM on RET M918T, 0.668 nM on RET WT and 0.797 nM at RET V804L. For the same molecule, the GI50 with MV4-11 came to 15600 pM.

As to `O=C1Nc2ccc(F)cc2/C1=C1/Nc2ccccc2/C1=N\OCCN[C@H]1[C@@H]2CNC[C@@H]21` [Example 7, (2Z,3E)-3-((2-((1R,5S,6s)-3-azabicyclo[3.1.0]hexan-6-ylamino)ethoxy)imino)-5′-fluoro-[2,3′-biindolinylidene]-2′-one], the IC50 at RET M918T was 0.666 nM; on RET WT it was 1.03 nM; at RET V804L it was 0.742 nM. For the same molecule, the GI50 with MV4-11 was determined as 5650 pM.

As to `N[C@@H]1[C@H]2CN(CCO/N=C3/C(=C4/C(=O)Nc5ccc(F)cc54)Nc4ccccc43)C[C@@H]12` [Example 8, (2Z,3E)-3-((2-((1R,5S,6s)-6-amino-3-azabicyclo[3.1.0]hexan-3-yl)ethoxy)imino)-5′-fluoro-[2,3′-biindolinylidene]-2′-one], the IC50 was found to be 0.344 nM on RET M918T, 0.441 nM at RET WT and 0.54 nM on RET V804L. Also, in the assay with MV4-11, the GI50 came to 90600 pM.

On to `O=C1Nc2ccc(F)cc2/C1=C1/Nc2ccccc2/C1=N\OCCN1C[C@H]2C[C@@H]1CN2` [Example 9, (2Z,3E)-3-((2-((1R,4R)-2,5-diazabicyclo[2.2.1]heptan-2-yl)ethoxy)imino)-5′-fluoro-[2,3′-biindolinylidene]-2′-one], for which the IC50 on RET M918T was 1.02 nM; on RET WT, 0.49 nM; on RET V804L, 0.785 nM. For the same molecule, the GI50 with MV4-11 worked out at 260 pM.

In the case of `O=C1Nc2ccc(F)cc2/C1=C1/Nc2ccccc2/C1=N\OCCN1C[C@@H]2C[C@H]1CN2` [Example 10, (2Z,3E)-3-((2-((1S,4S)-2,5-diazabicyclo[2.2.1]heptan-2-yl)ethoxy)imino)-5′-fluoro-[2,3′-biindolinylidene]-2′-one], the IC50 on RET M918T amounted to 0.617 nM; on RET WT it was 0.815 nM; at RET V804L, 0.511 nM. Besides, the GI50 in the assay on MV4-11 is 685 pM.

With `O=C1Nc2ccc(Cl)cc2/C1=C1/Nc2ccccc2/C1=N\OCCN1C[C@H]2C[C@@H]1CN2` [Example 11, (2Z,3E)-3-((2-((1R,4R)-2,5-diazabicyclo[2.2.1]heptan-2-yl)ethoxy)imino)-5′-chloro-[2,3′-biindolinylidene]-2′-one], the IC50 at RET M918T was 1.27 nM; on RET WT, 1.72 nM; on RET V804L, 1.02 nM. The GI50 in the assay on MV4-11 (pM) stood at 40 pM.

Take `O=C1Nc2ccc(Br)cc2/C1=C1/Nc2ccccc2/C1=N\OCCN1C[C@H]2C[C@@H]1CN2` [Example 13, (2Z,3E)-3-((2-((1R,4R)-2,5-diazabicyclo[2.2.1]heptan-2-yl)ethoxy)imino)-5′-bromo-[2,3′-biindolinylidene]-2′-one]: the IC50 at RET M918T amounted to 1.03 nM; on RET WT it was 1.31 nM; at RET V804L, 0.376 nM. The GI50 with MV4-11 (pM) turned out to be 61 pM.

Regarding `O=C1Nc2ccccc2/C1=C1/Nc2ccccc2/C1=N\OCC(=O)N1CC2(CNC2)C1` [Example 15, (2Z,3E)-3-((2-oxo-2-(2,6-diazaspiro[3.3]heptan-2-yl)ethoxy)imino)-[2,3′-biindolinylidene]-2′-one], the IC50 amounted to 1.08 nM at RET M918T, 0.664 nM on RET WT and 0.37 nM at RET V804L. The GI50 with MV4-11 stood at 100000 pM.

Consider `O=C(CO/N=C1/C(=C2/C(=O)Nc3ccccc32)Nc2ccccc21)N[C@H]1[C@@H]2CNC[C@@H]21` [Example 16, N-((1R,5S,6s)-3-azabicyclo[3.1.0]hexan-6-yl)-2-(((E)-((Z)-2′-oxo-[2,3′-biindolinylidene]-3-ylidene)amino)oxy)acetamide], for which the figures for the IC50 at RET M918T, at RET WT and on RET V804L were 1.19 nM, 0.873 nM and 0.472 nM, respectively. Further, the GI50 in the assay on MV4-11 stood at 5040 pM.

(Values after patent US20240010635A1, “NOVEL INDIRUBIN DERIVATIVES HAVING HETEROBICYCLIC MOIETIES AND THE USE THEREOF” (priority 2022, published 2024).)
